Measurements taken from ChEMBL document CHEMBL1201862, “PubChem BioAssay data set” (2004).
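Compound exposure: 48 hours, 5 concentrations, 96-well plates. GI50 is the concentration that inhibits growth by half.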 Active and inactive are the calls of the source. Cut-off read from the data, not from the text of the source: active = GI50 up to about 1.1 µM and inactive = higher.

Assays:
Assay in all cases: NCI tumour cell line growth inhibition, 48 h
[1] = system: SF-268
[2] = system: UO-31
[3] = system: COLO 205
[4] = system: SF-295
[5] = system: UACC-62
[6] = system: RPMI-8226
[7] = system: HCT-116
[8] = system: SK-MEL-28
[9] = system: NCI-H226
[10] = system: MOLT-4
[11] = system: SNB-19
[12] = system: SNB-75
[13] = system: HCC 2998
[14] = system: SW-620
[15] = system: NCI-H522
[16] = system: SR

Measured: GI50

CC1(C)OB(O)OC1(C)C
inactive: [1] > 100 µM | [2] > 100 µM | [3] > 100 µM | [4] > 100 µM | [5] > 100 µM | [6] > 100 µM | [7] > 100 µM | [8] > 100 µM | [9] > 100 µM | [10] > 100 µM | [11] > 100 µM | [12] > 100 µM | [13] > 100 µM | [14] > 100 µM | [15] > 100 µM

Cc1ccc(C2=C(c3ccc(C)cc3)C(c3ccc(C)cc3)=C(c3ccc(C)cc3)C2=O)cc1
inactive: [1] > 100 µM | [2] > 100 µM | [4] > 100 µM | [6] > 100 µM | [7] > 100 µM | [8] > 100 µM | [9] > 100 µM | [10] > 100 µM | [11] > 100 µM | [12] > 100 µM | [14] > 100 µM | [15] > 100 µM | [16] > 100 µM

CC12CC3C(CC1SCC(=O)O2)C3(C)C (configuration not stated)
inactive: [1] > 100 µM | [2] > 100 µM | [3] > 100 µM | [4] > 100 µM | [6] > 100 µM | [7] > 100 µM | [8] > 100 µM | [10] > 100 µM | [12] > 100 µM | [13] > 100 µM

COC(=O)c1nc(-c2ccc(Cl)c(Cl)c2)nc2ccc(Cl)cc12
inactive: [1] 92.9 µM | [2] 33.6 µM | [3] > 100 µM | [4] 37.7 µM | [5] 87.3 µM | [6] > 100 µM | [7] 18.4 µM | [8] > 100 µM | [10] > 10 µM | [11] 44.1 µM | [12] 19.6 µM | [13] > 100 µM | [14] > 100 µM | [15] > 10 µM | [16] > 100 µM

Cc1cn(C2CC(OC3CCCCO3)C(CO)O2)c(=O)[nH]c1=O (configuration not stated)
inactive: [1] > 100 µM | [2] > 100 µM | [3] > 100 µM | [4] > 100 µM | [6] > 100 µM | [7] > 100 µM | [8] > 100 µM | [9] > 100 µM | [10] > 100 µM | [11] > 100 µM | [13] > 100 µM | [14] > 100 µM | [15] > 100 µM | [16] > 100 µM

CCc1ccc(/C(C)=N/NC(N)=S)cc1
inactive: [1] > 100 µM | [2] > 100 µM | [3] > 100 µM | [4] > 100 µM | [5] 31.8 µM | [6] > 100 µM | [7] > 100 µM | [8] > 100 µM | [10] 17.2 µM | [11] > 100 µM | [13] > 100 µM | [16] > 100 µM

CCCC(=O)OCC(O)CO (configuration not stated)
inactive: [1] > 5000 µM | [2] 2860 µM | [3] > 5000 µM | [4] > 5000 µM | [5] 2170 µM | [6] 2990 µM | [7] > 5000 µM | [8] > 5000 µM | [9] > 5000 µM | [10] > 5000 µM | [12] > 5000 µM | [14] > 5000 µM | [15] 3740 µM | [16] > 5000 µM

Cc1cc(C)nc(NS(=O)(=O)c2ccc(NC(=O)c3cccc4c(Nc5ccc(S(=O)(=O)N=C(N)N)cc5)c5ccccc5nc34)cc2)n1
inactive: [1] 22.5 µM | [2] 46.6 µM | [3] 37.9 µM | [4] 27.4 µM | [5] 29.9 µM | [6] 15.1 µM | [7] 32.4 µM | [8] 33.4 µM | [10] 32.8 µM | [11] 33.1 µM | [12] 38 µM | [13] 4.85 µM | [14] 9.48 µM | [15] 44.3 µM

CCOc1ccc(C2=NN(CC)C(=O)C(C3C(=O)N(c4ccccc4)N=C3C)C2)cc1 (configuration not stated)
inactive: [1] > 100 µM | [2] > 100 µM | [3] > 100 µM | [4] > 100 µM | [5] > 100 µM | [6] > 100 µM | [7] > 100 µM | [8] > 100 µM | [9] > 100 µM | [10] > 100 µM | [11] > 100 µM | [13] > 100 µM | [14] > 100 µM | [15] > 100 µM

CN(C)CC1CCC/C1=N\O (configuration not stated)
inactive: [1] > 100 µM | [2] > 100 µM | [3] > 100 µM | [4] > 100 µM | [5] > 100 µM | [6] > 100 µM | [7] > 100 µM | [8] > 100 µM | [9] > 100 µM | [10] > 100 µM | [12] > 100 µM | [13] > 100 µM | [14] > 100 µM | [15] > 100 µM | [16] > 100 µM

CC(CC(=O)N1C(=O)C(C)(C)[C@@H](O)[C@H]1CC(C)C(Cl)(Cl)Cl)C(Cl)(Cl)Cl (some centres not stated)
inactive: [1] > 100 µM | [2] > 100 µM | [3] > 100 µM | [4] > 100 µM | [5] > 100 µM | [6] > 100 µM | [7] > 100 µM | [9] > 100 µM | [10] > 100 µM | [11] > 100 µM | [12] > 100 µM | [13] > 100 µM | [14] > 100 µM | [15] > 100 µM

COC(=O)C1=C(c2cc(OC)c(OC)c(OC)c2)OC(c2ccc3c(c2)OCO3)C1 (configuration not stated)
inactive: [1] 56.5 µM | [2] 15.5 µM | [3] 12.8 µM | [4] 18.5 µM | [5] 5.05 µM | [6] 33.4 µM | [7] 32.9 µM | [8] 48 µM | [9] 56 µM | [10] 15.8 µM | [11] 42.5 µM | [12] 39.4 µM | [13] 28.4 µM | [14] 18.1 µM | [16] 5.38 µM

O=C(CCc1n[nH]c(=S)o1)Nc1cc(Cl)ccc1Cl
inactive: [1] 56.6 µM | [2] > 100 µM | [3] > 100 µM | [4] > 100 µM | [5] > 100 µM | [6] 19.1 µM | [7] 16.1 µM | [8] > 100 µM | [9] > 100 µM | [10] > 100 µM | [11] > 100 µM | [12] > 100 µM | [13] > 100 µM | [14] 15.3 µM

CCc1cccc(C)c1N1C(=O)C(=O)C(c2nc3ccccc3o2)/C(=N/NC(=S)NN)C1=O (configuration not stated)
inactive: [1] > 100 µM | [2] > 100 µM | [3] > 100 µM | [4] > 100 µM | [5] > 100 µM | [6] > 100 µM | [7] > 100 µM | [8] > 100 µM | [9] > 100 µM | [11] > 100 µM | [12] > 100 µM | [14] > 100 µM | [15] > 100 µM
